Measured values as given in patent publication US20100150890A1, “MEDICINAL COMPOSITION, FOOD OR DRINK HAVING EFFECT OF ENHANCING SYMPATHETIC NERVOUS ACTIVITY” (SUNTORY HOLDINGS LIMITED, priority 2005, published 2010).

Experiments:
Assay type in all cases: in vivo
[1] = test system: kidney sympathetic nervous activity; assay: Rat kidney sympathetic nervous activity after transduodenal administration; settings: urethane-anesthetized male rat, transduodenal 10 μg/2 ml per animal, vs physiological saline control; FIG. 3
Protocol: (§1) In these experiments, use was made of male Mister rats weighing about 300 g which had been fed in a thermostatic chamber (24° C.) with a light-dark cycle of 12-hour intervals (under illumination from 8:00 to 20:00) for 1 week or longer. A single rat was employed for each nervous experiment. The animals were fed with a feed (Oriental Yeast, MF) and water ad libitum. The autonomic nervous activity were examined by fasting the rats for 3 hours on the day of the experiment and then subjecting to an abdominal surgery under urethane-anesthesia at the intermediate point of the light period. Then, the effects of the transduodenal administration of 2,3-dihydro-3,5-dihydroxy-6-methyl-4H-pyran-4-one obtained in Example 1 on the kidney sympathetic nervous activity, stomach vagal (parasympathetic) nervous activity and blood pressure were measured in accordance with the method reported by T. Yamano et al., Neurosci. […] A cannula was inserted into the left femoral artery and then the blood pressure was measured by use of a transducer. […] Electrical nervous activity thus obtained were amplified with a condenser type differential amplifier, monitored with an oscilloscope and recorded on a magnetic tape. […] The data was analyzed based on the average discharge frequency per 5 seconds (pulse/5 sec) and expressed as a percentage by referring to the level before the administration as to 100%. […]

[2] = Rat blood pressure after transduodenal administration (left femoral artery cannula, transducer); settings: urethane-anesthetized male rat, transduodenal 10 μg/2 ml per animal, vs physiological saline control; FIG. 4
Protocol: as §1

[3] = test system: interscapular brown adipose tissue sympathetic nervous activity; assay: Rat interscapular brown adipose tissue sympathetic nervous activity after transduodenal administration; settings: transduodenal administration 10 μg, single rat, FIG. 6
[4] = test system: epididymal white adipose tissue sympathetic nervous activity; assay: Rat epididymal white adipose tissue sympathetic nervous activity after transduodenal administration; settings: transduodenal administration 10 μg, single rat, FIG. 7
[5] = Rat oxygen consumption (energy metabolism) after forced oral administration; settings: male SD rats fasted 16 hours, 40 μg/8 ml/kg body weight forced oral, within 60 minutes after administration, 5 rats per group; FIG. 8
Protocol: Male SD rats aged 7 weeks were preliminarily fed with a solid feed (CE-2: NIPPON CREA) and water ad libitum for 1 week for the habituation to the light-dark cycle of 12-hour intervals. The thus habituated animals were fasted for 16 hours before the administration of the samples and then divided into two groups. Then, 40 μg/8 ml/kg body weight of DDMP and 8 ml/kg body weight of distilled water for injection were forcibly orally administered into the stomach to the respective groups. Within 60 minutes following the administration, oxygen consumption was measured with a metabolic meter for small animals (MK-5000RQ2: manufactured by MUROMACHI KIKAI Co., Ltd.). A combination of a DDMP-administered rat with a water-administered rat was referred to as a single experimental lot and the averages of five combinations (i.e., a DDMP-administered group having 5 rats and a water-administered group having 5 rats) were calculated.

[6] = test system: stomach vagal (parasympathetic) nervous activity; assay: Rat stomach vagal (parasympathetic) nervous activity after transduodenal administration; settings: urethane-anesthetized male rat, transduodenal 10 μg/2 ml per animal, vs physiological saline control; FIG. 5
Protocol: as §1

**Q.** Which “kidney sympathetic nervous activity (discharge frequency vs level before administration)” value [1] does the source give for `CC1=C(O)C(=O)C(O)CO1` (stereo not drawn) [DDMP, 2,3-Dihydro-3,5-dihydroxy-6-methyl-4H-pyran-4-one] here?
**A.** The value was “enhanced”.

**Q.** What about the blood pressure [2] of the same compound?
**A.** Its blood pressure is “not elevated”.

**Q.** And the “interscapular brown adipose tissue sympathetic nervous activity” value [3]?
**A.** The value was “enhanced”.

**Q.** And the “epididymal white adipose tissue sympathetic nervous activity” value [4]?
**A.** The value was “enhanced”.

**Q.** And the “oxygen consumption compared with the water-administered group” value [5]?
**A.** Its value is “increase in oxygen consumption”.

**Q.** What about the “stomach vagal (parasympathetic) nervous activity” value [6] of the same compound?
**A.** Its value is “reduced”.
